The results in this text go back to patent US20160002204A1 (Board of Regents, The University of Texas System, priority 2014, published 2016).

SMILES strings stand for the structures.

The target in assay [1] is T1, GLS1 (purified recombinant human GAC) (Homo sapiens, UniProt O94925).
T1 sequence (O94925 55-598 isoform O94925-3 limits assumed): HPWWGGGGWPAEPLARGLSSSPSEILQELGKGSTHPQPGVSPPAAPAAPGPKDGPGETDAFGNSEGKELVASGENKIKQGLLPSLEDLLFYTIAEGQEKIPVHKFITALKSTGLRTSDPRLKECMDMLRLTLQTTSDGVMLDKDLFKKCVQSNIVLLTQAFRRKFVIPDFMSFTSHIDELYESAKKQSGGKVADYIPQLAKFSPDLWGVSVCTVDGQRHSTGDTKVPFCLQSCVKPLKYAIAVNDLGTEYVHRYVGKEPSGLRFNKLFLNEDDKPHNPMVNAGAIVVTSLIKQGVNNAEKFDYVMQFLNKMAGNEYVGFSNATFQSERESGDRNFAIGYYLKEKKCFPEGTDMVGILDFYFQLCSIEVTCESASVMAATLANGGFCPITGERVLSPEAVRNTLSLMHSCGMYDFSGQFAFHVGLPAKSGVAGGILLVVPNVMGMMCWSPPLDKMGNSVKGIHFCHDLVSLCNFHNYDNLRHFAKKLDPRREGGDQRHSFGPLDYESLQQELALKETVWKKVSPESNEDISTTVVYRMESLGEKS
The assay is described as follows: GLS1 enzymatic activity assay (dual-coupled, Amplex UltraRed/resorufin). It counts as biochemical. Put shortly: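 In this coupled fluorometric format, phosphate-activated GAC (2 nM, 50 mM phosphate) is pre-exposed to compound for 10 min before 1 mM glutamine addition. Product is tracked as resorufin (530/590 nm) over time or at 20 min, and potency is derived by logistic fitting.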

Assay [2] deals with A549 cells. Nature of the assay: A549 proliferation (viability) assay, Cell Titer Fluor, 72 hours. The format is cell-based. The note with it: Homo sapiens. In outline:
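A549 cells in RPMI 1640 with 10% dialyzed FBS were seeded at 1000 cells/well, grown 24 h, then exposed to compound (0.5% DMSO final) for 72 h at 37 °C, 5% CO2. Viability was read by Cell Titer Fluor fluorescence; EC50 from four-parameter logistic fit.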

One may read the IC50 as the midpoint of a concentration-inhibition curve. As a reminder, the EC50 is the midpoint of the concentration-response curve. A higher EC50 goes with weaker potency. As for `O=C(CC1CCCC1)Nc1ccn(CCCCn2cc(C(=O)NCc3cccc(C(F)(F)F)c3)nn2)c(=O)c1` [Example 153, 1-{4-[4-(2-cyclopentylacetamido)-2-oxo-1,2-dihydropyridin-1-yl]butyl}-N-{[3-(trifluoromethyl)phenyl]methyl}-1H-1,2,3-triazole-4-carboxamide], the IC50 in assay [1] is less than 100 nM. In assay [2], the concentration for a half-maximal effect (EC50) was less than 100 nM.
In the case of `O=C(Cc1cccc(OC(F)(F)F)c1)Nc1ccn(CCCCc2nnc(C(=O)NCc3ccccn3)s2)c(=O)c1` [Example 446, 5-[4-(2-oxo-4-{2-[3-(trifluoromethoxy)phenyl]acetamido}-1,2-dihydropyridin-1-yl)butyl]-N-(pyridin-2-ylmethyl)-1,3,4-thiadiazole-2-carboxamide], in assay [1], the IC50 is less than 100 nM. Moreover, the EC50 in assay [2] lay within 100 to 500 nM.
On the same counts, the results for `CCN(CC)C(=O)C(=O)Nc1ccn(CCC(F)Cn2cc(C(=O)NCc3cccc(OC(F)(F)F)c3)nn2)c(=O)c1F` (stereo not drawn) [Example 425, N,N-diethyl-N′-(3-fluoro-1-{3-fluoro-4-[4-({[3-(trifluoro-methoxy)phenyl]methyl}carbamoyl)-1H-1,2,3-triazol-1-yl]butyl}-2-oxo-1,2-dihydropyridin-4-yl)ethanediamide] are less than 100 nM and 100 to 500 nM.
On the same counts, the results for `O=C(Cc1ccccc1)Nc1ccn(CCCCc2ccc(NC(=O)Cc3cccc(OC(F)(F)F)c3)nn2)c(=O)c1` [Example 14, N-(2-oxo-1-(4-(6-(2-(3-(trifluoromethoxy)phenyl)acetamido)pyridazin-3-yl)butyl)-1,2-dihydropyridin-4-yl)-2-phenylacetamide] are less than 100 nM and less than 100 nM.
Take `O=C(NCc1cc(C(F)(F)F)ccn1)c1cn(CC(F)CCn2ccc(COc3c(F)cccc3F)cc2=O)nn1` (stereo not drawn) [Example 485, 1-{4-[4-(2,6-difluorophenoxymethyl)-2-oxo-1,2-dihydropyridin-1-yl]-2-fluorobutyl}-N-{[4-(trifluoromethyl)pyridin-2-yl]methyl}-1H-1,2,3-triazole-4-carboxamide]: the IC50 in assay [1] was 100 to 500 nM. In assay [2], this compound returned a concentration giving a half-maximal response (EC50) of 100 to 500 nM.
On to `O=C(CC1CCCCC1)Nc1ccn(CCCCc2nnc(C(=O)NCc3ccccn3)s2)c(=O)c1` [Example 447, 5-{4-[4-(2-cyclohexylacetamido)-2-oxo-1,2-dihydropyridin-1-yl]butyl}-N-(pyridin-2-ylmethyl)-1,3,4-thiadiazole-2-carboxamide], for which, in assay [1], the IC50 is less than 100 nM. In addition, in assay [2], the 50% effective concentration (EC50) was less than 100 nM.
`C[C@@H](NC(=O)Nc1ccn(CCCCc2ccc(NC(=O)Cc3ccccc3)nn2)c(=O)n1)c1ccccc1` [Example 89, N-(6-{4-[2-oxo-4-({[(1R)-1-phenylethyl]carbamoyl}amino)-1,2-dihydropyrimidin-1-yl]butyl}pyridazin-3-yl)-2-phenylacetamide]: the IC50 in assay [1] is 100 to 500 nM. This compound displayed an EC50 in assay [2] of more than 5000 nM.
On the same counts, the results for `O=C(CC1CCCCC1)Nc1ccn(CCCCc2nnc(C(=O)NCc3cccc(OC(F)(F)F)c3)s2)c(=O)c1` [Example 440, 5-{4-[4-(2-cyclohexylacetamido)-2-oxo-1,2-dihydropyridin-1-yl]butyl}-N-{[3-(trifluoromethoxy)phenyl]methyl]-1,3,4-thiadiazole-2-carboxamide] are less than 100 nM and less than 100 nM.
In the same order, the values of `O=C(CN1CCCCC1)Nc1ccn(CCCCc2nnc(C(=O)NCc3cc(C(F)(F)F)ccn3)s2)c(=O)c1F` [Example 467, 5-(4-{3-fluoro-2-oxo-4-[2-(piperidin-1-yl)acetamido]-1,2-dihydropyridin-1-yl}butyl)-N-{[4-(trifluoromethyl)pyridin-2-yl]methyl}-1,3,4-thiadiazole-2-carboxamide] are less than 100 nM and 100 to 500 nM.
Regarding `O=C(CC1CCCCC1)Nc1ccn(CCC(F)Cn2cc(C(=O)NCc3cccc(C(F)(F)F)c3)nn2)c(=O)c1F` (stereo not drawn) [Example 264, 1-{4-[4-(2-cyclohexylacetamido)-3-fluoro-2-oxo-1,2-dihydropyridin-1-yl]-2-fluorobutyl}-N-{[3-(trifluoromethyl)phenyl]methyl}-1H-1,2,3-triazole-4-carboxamide], the IC50 in assay [1] was less than 100 nM. The concentration for a half-maximal effect (EC50) in assay [2] was less than 100 nM.
As for `O=C(Cc1ccccc1)Nc1ccn(CCCCc2nnc(NC(=O)[C@@H](O)c3ccccc3)s2)c(=O)n1` [Example 17, (S)-2-hydroxy-N-(5-(4-(2-oxo-4-(2-phenylacetamido)pyrimidin-1(2H)-yl)butyl)-1,3,4-thiadiazol-2-yl)-2-phenylacetamide], the half-inhibitory concentration (IC50) in assay [1] is less than 100 nM. This compound also yielded a concentration for a half-maximal effect (EC50) in assay [2] of more than 5000 nM.
In the same order, the values of `O=C(Cc1ccccc1)Nc1ccn(CCC(F)Cn2cc(C(=O)NCC3CCCC3)nn2)c(=O)c1F` (stereo not drawn) [Example 381, N-(cyclopentylmethyl)-1-{2-fluoro-4-[3-fluoro-2-oxo-4-(2-phenylacetamido)-1,2-dihydropyridin-1-yl]butyl}-1H-1,2,3-triazole-4-carboxamide] are 100 to 500 nM and 500 to 5000 nM.
`COc1cccc(CNC(=O)c2cn(CCCCn3ccc(NC(=O)Cc4cccc(OC(F)(F)F)c4)cc3=O)nn2)c1` [Example 65, N-[(3-methoxyphenyl)methyl]-1-[4-(2-oxo-4-{2-[3-(trifluoromethoxy)phenyl]acetamido}-1,2-dihydropyridin-1-yl)butyl]-1H-1,2,3-triazole-4-carboxamide]: in assay [1], the concentration for half-maximal inhibition (IC50) was less than 100 nM. Moreover, in assay [2], the EC50 is 500 to 5000 nM.
In the same order, the values of `O=C(NCc1cncc(C(F)(F)F)c1)c1cn(CC(F)CCn2ccc(NC(=O)C3CCCC3)c(F)c2=O)nn1` (stereo not drawn) [Example 364, 1-[4-(4-cyclopentaneamido-3-fluoro-2-oxo-1,2-dihydropyridin-1-yl)-2-fluorobutyl]-N-{[5-(trifluoromethyl)pyridin-3-yl]methyl}-1H-1,2,3-triazole-4-carboxamide] are less than 100 nM and less than 100 nM.
On the same counts, the results for `CC(=O)OC(C(=O)Nc1ccn(CC[C@H](F)Cn2cc(C(=O)NCc3cc(C(F)(F)F)ccn3)nn2)c(=O)c1F)c1ccccc1` (stereo partly drawn) [Example 325, (S)-[(3-fluoro-1-{3-fluoro-4-[4-({[4-(trifluoromethyl)pyridin-2-yl]methyl}carbamoyl)-1H-1,2,3-triazol-1-yl]butyl}-2-oxo-1,2-dihydropyridin-4-yl)carbamoyl](phenyl)methyl acetate] are less than 100 nM and less than 100 nM.
On the same counts, the results for `O=C(Cc1ccccc1)Nc1ccn(CCCCn2ccc(NC(=O)Cc3ccccc3)nc2=O)c(=O)n1` [Example 15, N,N′-(butane-1,4-diylbis(2-oxo-1,2-dihydropyrimidine-1,4-diyl))bis(2-phenylacetamide)] are less than 100 nM and more than 5000 nM.
As to `O=C(Nc1ccn(CCCCc2nnc(C(=O)NCc3cccc(OC(F)(F)F)c3)s2)c(=O)n1)OCc1ccccc1` [Example 28, Benzyl 2-oxo-1-(4-(5-(3-(trifluoromethoxy)benzylcarbamoyl)-1,3,4-thiadiazol-2-yl)butyl)-1,2-dihydropyrimidin-4-ylcarbamate], the IC50 in assay [1] was less than 100 nM. In assay [2], this compound returned a concentration for a half-maximal effect (EC50) of 100 to 500 nM.
For `O=C(CC1CCCC1)Nc1ccn(CCC(F)Cn2cc(C(=O)NCc3cccc(OC(F)(F)F)c3)nn2)c(=O)c1F` (stereo not drawn) [Example 355, 1-{4-[4-(2-cyclopentylacetamido)-3-fluoro-2-oxo-1,2-dihydropyridin-1-yl]-2-fluorobutyl}-N-{[3-(trifluoromethoxy)phenyl]methyl}-1H-1,2,3-triazole-4-carboxamide], the IC50 in assay [1] was less than 100 nM. This compound also registered a concentration for a half-maximal effect (EC50) in assay [2] of less than 100 nM.
Turning to `O=C(NCc1cccnc1)c1ccn(CCCCn2cc(C(=O)NCc3cccc(OC(F)(F)F)c3)nn2)c(=O)c1` [Example 60, 2-oxo-N-(pyridin-3-ylmethyl)-1-{4-[4-({[3-(trifluoro-methoxy)phenyl]methyl}carbamoyl)-1H-1,2,3-triazol-1-yl]butyl}-1,2-dihydropyridine-4-carboxamide], the IC50 in assay [1] was in the range of 100 to 500 nM. In assay [2], this compound had an EC50 of more than 5000 nM.
For the compound `CC(C)(C)OC(=O)N1CCC(CC(=O)Nc2ccn(CCCCn3cc(C(=O)NCc4cccc(OC(F)(F)F)c4)nn3)c(=O)c2)CC1` [Example 205, tert-butyl 4-{[(2-oxo-1-{4-[4-({[3-(trifluoromethoxy)phenyl]methyl}carbamoyl)-1H-1,2,3-triazol-1-yl]butyl}-1,2-dihydropyridin-4-yl)carbamoyl]methyl}piperidine-1-carboxylate], in assay [1], the half-maximal inhibitory concentration (IC50) was less than 100 nM. Besides, in assay [2], the EC50 is less than 100 nM.
Take `O=C(CC1CCCC1)Nc1ccn(CCCCn2cc(C(=O)NCc3cccc(OC(F)(F)F)c3)nn2)c(=O)c1` [Example 210, 1-{4-[4-(2-cyclopentylacetamido)-2-oxo-1,2-dihydropyridin-1-yl]butyl}-N-{[3-(trifluoromethoxy)phenyl]methyl}-1H-1,2,3-triazole-4-carboxamide]: in assay [1], the IC50 was less than 100 nM. The compound also showed an EC50 in assay [2] of less than 100 nM.
